Source: US11066378B2, “Caffeic acid derivatives for anti-angiogenesis” (Taipei Medical University, priority 2015, dated 2021)

Key:
[1] = system: LLC1 lung cancer cells; assay: Cell viability assay (MTT assay), growth inhibition of LLC1 cells; assay type: cell-based, mouse; details: normal culture condition
Experimental: Human umbilical vein endothelial cells (HUVECs; #8000) were purchased from the ScienCell Research Laboratories (San Diego, Calif., USA). The cells were seeded on gelatin-coated culture dishes and grown in the commercial endothelial cell medium (#1001; ScienCell) containing 5% fetal bovine serum (FBS; #0025; ScienCell), 30 μg/mL endothelial cell growth supplements (ECGS; #1052; ScienCell), 100 units/mL penicillin G, and 100 μg/mL streptomycin sulfates (#0503; ScienCell). Cells at passage 3-6 were used for experiments. Mouse Lewis lung carcinoma cell line 1 (LLC1; #60050) was bought from the Food Industry Research and Development Institute (Hsinchu, Taiwan) and cultured in Gibco® Dulbecco's modified Eagle's medium (#12800-017; Invitrogen, Carlsbad, Calif., USA) supplemented with 10% FBS (HyClone, Logan, Utah, USA), 4 mM L-glutamine, 1.5 g/L sodium bicarbonate, 100 units/mL penicillin G, and 100 μg/mL streptomycin. All cells were incubated in a humidified 5% CO2 atmosphere at 37° C. and culture media was changed every 2˜3 days.
The experiments were performed according to our previous study with minor modifications (Pan et al., 2010). […] Absorbance values at 570 nm were determined for each well using 650 nm as the reference wavelength. The absorbance of the control group (treated with 5% or 10% FBS alone) was defined as 100%.

[2] = system: LLC1 lung carcinoma tumor; assay: Lewis lung carcinoma-bearing mouse model; assay type: in vivo; details: LLC1-bearing mice, 2-week treatment, 4 and 8 mg/kg/day intraperitoneal, FIG. 1A
Source text: The experimental design and procedure according to the method reported by our previous study with minor modification (Liu et al., 2013). Briefly, male C57BL/6 mice (average of 8-week-old) were purchased from the BioLASCO (Taipei, Taiwan) and housed in a 12-h light/dark cycles with free access to food and water. All animal care followed the institutional animal ethical guidelines of ChinaMedical University (Taichung, Taiwan). After 1 week adaptation, the mice were divided randomly into three groups (n=6/group): Group 1 (control group; treatment with normal saline), Group 2 (treatment with 4 mg/kg body weight/day of […]), and Group 3 (treatment with 8 mg/kg body weight/day of […]). At first, the LLC1 lung cancer cells (6×10^5 cells in 100 μL of total volume) were injected subcutaneously into the back skin of mice to induce lung carcinoma xenografts. Two weeks later, the tumor-bearing mice began to receive the treatments according to experiment design (normal saline or […] with different dosages) by intraperitoneal injection once a day for two weeks. At the end of the study, the tumor masses were harvested to photograph and weighted.

[3] = system: VEGF-induced vessel formation within the Matrigel plug; assay: Matrigel plug assay (VEGF-induced neovascularization); assay type: in vivo, mouse; details: mice, dose-dependent
Experimental: Male C57BL/6 (average of 6-week-old) mice were divided randomly into four groups (n=3/group): Group 1 (control group; injection with 500 μL cold-Matrigel [#356237; BD Biosciences]), Group 2 (injection with 500 μL cold-Matrigel containing 100 ng/mL VEGF and 100 U/mL heparin), Group 3 (injection with 4 μM […] dissolved in 500 μL cold-Matrigel containing 100 ng/mL VEGF and 100 U/mL heparin), and Group 4 (injection with 8 μM […] dissolved in 500 μL cold-Matrigel containing 100 ng/mL VEGF and 100 U/mL heparin). After 1 week adaptation, the mice were anesthetized and injected subcutaneously with pre-prepared cold-Matrigel gel mentioned above into the left groin region to form jelly-like plug under normal body temperature. The vascular endothelial cells will be attracted by Matrigel plug-released VEGF to form the new vessel within the Matrigel plug, whose process will be suppressed by anti-angiogenic substances added in the Matrigel plugs. After 7 days, the mice were sacrificed and the Matrigel plug was recovered and photographed. The harvested Matrigel plugs were further homogenized in 1× phosphate buffered saline (PBS) and then centrifuged at 10000×g for 10 min at 4° C. The Drabkin's Reagent (#D5941; Sigma-Aldrich, Louis, Mo., USA) was applied for examining the hemoglobin content in the supernatants of the homogenized Matrigel plugs according to the manufacturer's instructions. […]

[4] = system: angiogenesis in chick chorioallantoic membrane; assay: Chick chorioallantoic membrane (CAM) assay; details: ex vivo supplementary data, dose-dependent
[5] = system: HUVECs; assay: Cell cycle analysis by flow cytometry; assay type: cell-based, human; details: 24 h, FIG. 2E
Experimental: The experiments were performed according to our previous report with minor modifications (Pan et al., 2010). Briefly, the HUVECs (5×10^5 cells/well) were seeded on 6-well plated and harvested after 24 h treatment of K20E (0.5, 1, and 2 μM). Harvested cells were fixed with 70% ice-cold ethanol overnight. Cell pellets were centrifuged (1500 rpm, 5 min, 4° C.) and then re-suspended in 500 μL of DNA staining buffer containing 4 μg/mL propidium iodide, 1% Triton X-100, and 0.5 mg/mL of RNase A. After incubation at 37° C. (water bath) for 30 min in the dark, the cell cycle phase distributions were detected and analyzed by using FACSCanto flow cytometer (BD Biosciences, San Jose, Calif., USA) and ModFit LT Program (Verify Software House, Topsham, Me., USA), respectively.

[6] = system: HUVECs; assay: Tube formation analysis; assay type: cell-based, human; details: 8 h, 5% FBS, 0.5, 1 and 2 μM, dose-dependent, FIG. 4
Experimental: The experiments were performed as described previously (Pan et al., 2010). The HUVECs (lx 10^4 cells/well) were seeded on Matrigel-coated wells of a 96-well plate and then incubated with various concentrations (0.5, 1, and 2 μM) of K20E for 8 h. After that, the capillary-like tube formation was observed by light microscopy at 40-fold magnification, and the tube lengths of the capillary mesh were measured to evaluate anti-angiogenic effect of K20E. The tube length of the control group (treated with 5% FBS alone) was defined as 100%.

COC(=O)/C=C/c1cc(OC(C)=O)c2c(c1)[C@H](C(=O)OC)[C@@H](c1ccc(OC(C)=O)c(OC(C)=O)c1)O2 [K20E]
GI50 ([1]; Mus musculus, LLC1 lung cancer cells, data not shown, read-out: GI50 value on LLC1 (concentration that causes 50% growth inhibition)): ~79.4 µM
cell viability of the LLC1 lung cancer cells [1]: significantly inhibit
tumor mass [2]: dose-dependently reduced
neovessel formation within the Matrigel plug with VEGF ([3]; 4 and 8 μM, not at lower dose (1 and 2 μM), FIG. 1B upper panel): significantly decreased
hemoglobin content of the implanted Matrigel plugs with VEGF ([3]; compared to Matrigel with VEGF alone, FIG. 1B lower panel): obviously diminished
angiogenesis in CAM assay [4]: effectively reduce the angiogenesis
cells in sub-G1 phases (apoptosis) ([5]; 0.5 μM): significantly induce cells in sub-G1 phases (apoptosis)
cell cycle arrest in G2/M phase ([5]; 1 μM): arrest cells in G2/M phase
tube formation of the HUVECs on Matrigel [6]: significantly suppressed
